Laboratory results published in patent US9663473B2 (Actelion Pharmaceuticals Ltd, priority 2013, dated 2017).

Molecular target: T1, recombinant human ALX receptor (Homo sapiens, UniProt P25090)
T1 construct: expressed in transfected cells; host or cells: HEK293 (HEK293-hALXR-Gα16)
T1 sequence (P25090 1-351): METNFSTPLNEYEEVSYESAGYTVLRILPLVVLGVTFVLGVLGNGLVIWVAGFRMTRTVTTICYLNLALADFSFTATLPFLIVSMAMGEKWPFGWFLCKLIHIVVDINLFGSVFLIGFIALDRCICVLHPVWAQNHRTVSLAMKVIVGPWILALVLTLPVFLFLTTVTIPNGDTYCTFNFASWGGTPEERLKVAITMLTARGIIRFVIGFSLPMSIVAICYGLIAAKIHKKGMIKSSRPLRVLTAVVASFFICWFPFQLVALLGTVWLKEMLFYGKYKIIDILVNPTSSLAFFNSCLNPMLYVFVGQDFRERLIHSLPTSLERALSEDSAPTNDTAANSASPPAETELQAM
Experiment: Intracellular calcium measurements (FLIPR), ALX receptor agonistic activity
Assay type: cell-based
Conditions: HEK293-hALXR-Gα16 cells, Fluo-4 calcium signal, normalized to WKYMVm 10 nM
In short: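 Agonist-induced calcium flux was read by FLIPR (488/540 nm) as baseline-subtracted peak emission, expressed relative to WKYMVm at 10 nM final. Cells used: HEK293-hALXR-Gα16, dye-loaded 60 min at 37° C. with 1 μM Fluo-4 AM before compound dose-response addition.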

Compound | EC50
COc1ccc(CC(NC(=O)NCc2cccc(OC)c2)c2nc3ccccc3[nH]2)cc1 (centres unmarked) [Example 39, 1-(1-(1H-Benzo[d]imidazol-2-yl)-2-(4-methoxyphenyl)ethyl)-3-(3-methoxybenzyl)urea] | 0.516 µM
COc1ccc(C[C@@H](NC(=O)NCc2c(Cl)cccc2Cl)c2nc3ccccc3[nH]2)cc1 [Example 304, (R)-1-(1-(1H-Benzo[d]imidazol-2-yl)-2-(4-methoxyphenyl)ethyl)-3-(2,6-dichlorobenzyl)urea] | 0.141 µM
(R)—N-(1-(1H-Benzo[d]imidazol-2-yl)-2-(4-methoxyphenyl)ethyl)-4-acetylpiperazine-1-carboxamide [Example 135] | 0.333 µM
COC[C@H](Cc1ccccc1)NC(=O)N[C@H](Cc1ccc(OC)cc1)c1nc2ccccc2[nH]1 [Example 204, 1-((R)-1-(1H-Benzo[d]imidazol-2-yl)-2-(4-methoxyphenyl)ethyl)-3-((S)-1-methoxy-3-phenylpropan-2-yl)urea] | 0.005 µM
COc1ccc(CC(NC(=O)Nc2cc(-c3ccc(OC)cc3)n[nH]2)c2nc3ccccc3[nH]2)cc1 (centres unmarked) [Example 404, 1-(1-(1H-benzo[d]imidazol-2-yl)-2-(4-methoxyphenyl)ethyl)-3-(3-(4-methoxyphenyl)-1H-pyrazol-5-yl)urea] | 0.158 µM
COc1ccc(CC(NC(=O)NCc2cccnc2OC)c2nc3ccccc3[nH]2)cc1 (centres unmarked) [Example 385, 1-(1-(1H-Benzo[d]imidazol-2-yl)-2-(4-methoxyphenyl)ethyl)-3-((2-methoxypyridin-3-yl)methyl)urea] | 1.03 µM
COc1ccc(CC(NC(=O)NCc2ccccc2OC)c2nc3ccccc3[nH]2)cc1 (centres unmarked) [Example 44] | 0.466 µM

More lines, now with the values ahead:

EC50 | Compound
0.0023 µM | COc1ccc(CC(NC(=O)N[C@H]2CC[C@H](O)CC2)c2nc3cc(C(F)(F)F)ccc3[nH]2)cc1 (relative stereo) [Example 82, 1-(trans-4-Hydroxycyclohexyl)-3-(2-(4-methoxyphenyl)-1-(5-(trifluoromethyl)-1H-benzo[d]imidazol-2-yl)ethyl)urea]
0.597 µM | CCc1ccc(CC(NC(=O)N[C@H]2CC[C@H](O)CC2)c2nc3cc(F)ccc3[nH]2)cc1 (single isomer, unassigned; ent-2) [Example 374, 1-(2-(4-Ethylphenyl)-1-(5-fluoro-1H-benzo[d]imidazol-2-yl)ethyl)-3-(trans-4-hydroxycyclohexyl)urea (ent-2)]
1.17 µM | COc1ccc(C[C@@H](NC(=O)NC2(c3ccccc3Cl)CC2)c2nc3ccccc3[nH]2)cc1 [Example 389, (R)-1-(1-(1H-Benzo[d]imidazol-2-yl)-2-(4-methoxyphenyl)ethyl)-3-(1-(2-chlorophenyl)cyclopropyl)urea]
0.081 µM | COc1ccc(C2(C(NC(=O)N[C@H]3CC[C@H](O)CC3)c3nc4ccccc4[nH]3)CC2)cc1 (relative stereo) [Example 2, 1-((1H-Benzo[d]imidazol-2-yl)(1-(4-methoxyphenyl)cyclopropyl)methyl)-3-(trans-4-hydroxycyclohexyl)urea]
0.142 µM | COc1ccc(C[C@@H](NC(=O)N(CCO)C2CCCCC2)c2nc3ccccc3[nH]2)cc1 [Example 111, (R)-3-(1-(1H-Benzo[d]imidazol-2-yl)-2-(4-methoxyphenyl)ethyl)-1-cyclohexyl-1-(2-hydroxyethyl)urea]
1.01 µM | COc1ccc(CC(NC(=O)NCc2csc(C)n2)c2nc3ccccc3[nH]2)cc1 (centres unmarked) [Example 48, 1-(1-(1H-Benzo[d]imidazol-2-yl)-2-(4-methoxyphenyl)ethyl)-3-((2-methylthiazol-4-yl)methyl)urea]
0.119 µM | COc1ccc(C(C)(C)C(NC(=O)N[C@H]2CC[C@H](O)CC2)c2nc3ccccc3[nH]2)cc1 (relative stereo) [Example 3, 1-(1-(1H-Benzo[d]imidazol-2-yl)-2-(4-methoxyphenyl)-2-methylpropyl)-3-(trans-4-hydroxycyclohexyl)urea]
